# What was measured:
# Format in all cases: in vivo, rat
# [1] = test system: AMP-activated protein kinase (AMPK); experiment: AMPK activity in ammonium sulfate precipitates of muscle homogenates after s.c. AICAR injection
# Procedure: (§1) Three days prior to the experiment, jugular cathethers were installed and exteriorized on the back of the neck to allow rapid anesthesia of the rat and rapid blood and tissue collection. Rats were then injected with AICAR (1 mg/g body wt) subcutaneously in sterile 0.9% NaCl or were given 0.9% NaCl (n=6 rats per group). One hour after the subcutaneous injection, rats were anesthetized by intravenous injection of pentobarbital sodium (4.8 mg/100 g body wt). The superficial white and the deep red regions of the quadriceps muscles, and the soleus muscles were quickly removed and frozen with stainless steel clamps at liquid nitrogen temperature.
# (§2) Resuspended ammonium sulfate precipitates of tissue homogenates were analyzed for AMPK activity and acetyl-CoA carboxylase activity as described previously. Li, B., et al. J. Biol. Chem. 274:17534-17540, 1999; Winder, W. W., & D. G. Hardie Am. J. Physiol. 270:E299-E304, 1996. […] ACC activity at 0.2 mM citrate provides some indication of the in vivo activity of AMPK, since ACC is a target for phosphorylation of AMPK. ACC activity has previously been reported to decrease in response to phosphorylation by AMPK. Winder, W. W., & D. G. Hardie Am. J. Physiol. 270:E299-E304, 1996. The acute experiment was also repeated on rats treated with AICAR or saline for 4 weeks to see if the responses of AMPK and ACC to AICAR persisted for the entire treatment period. In both experiments ATP and CP were measured on neutralized perchloric acid extracts of muscle.
# [2] = test system: acetyl-CoA carboxylase (ACC); experiment: Acetyl-CoA carboxylase activity at 0.2 mM citrate in muscle after s.c. AICAR injection; settings: for ACC: at 0.2 mM citrate
# Procedure: as §1, §2
# [3] = ZMP concentration in muscle after AICAR injection; settings: for ZMP concentration: one hour after AICAR injection in rats given daily injections for 4 weeks
# Procedure: as §2
# (§3) After obtaining results on blunted acute response to an AICAR injection on AMPK in chronically treated rats, an additional experiment was done to determine if intermittent treatment of rats with AICAR would influence the extent of the increase in citrate synthase. This experiment was also of shorter duration to minimize down regulation that appeared to occur with prolonged treatment. Rats were injected for three days (1 mg/g) followed by two days of no treatment. They were then injected for five days, followed by another two days with no treatment and then for three additional days before killing 20-24 hours following the last injection. Rats were anesthetized and tissues were collected and frozen as before. Analytical methods. Muscles from rats killed 1 h after injection of AICAR or saline were analyzed for AMPK, acetyl-CoA carboxylase (ACC) at 0.2 mM citrate, ATP and CP and ZMP. Li, B., et al. J. Biol. Chem. 274:17534-17540, 1999; Winder, W. W., & D. G. Hardie Am. J. Physiol. 270:E299-E304, 1996; Heinz, F., & H. Weisser. Creatine phosphate. In: Methods of Enzymatic Analysis, edited by H. U. Bergmeyer. New York: Academic, 1983, p. 507-514.
# lactate dehydrogenase = experiment: Muscle lactate dehydrogenase activity after chronic AICAR injection; settings: chronic AICAR 1 mg/g daily 4 wk
# Procedure: (§4) To determine the effect of chronic injection of AICAR on muscle enyzme activities or expression and on muscle GLUT4, rats were injected subcutaneously (between 8 and 10 a.m.) with AICAR (1 mg/g) or saline vehicle daily for 28±1 days in succession. Beginning with the first injection, controls were pair fed with AICAR-injected rats. Rats were anesthetized by intraperitoneal injection of pentobarbital sodium 22-25 hours after the last AICAR injection and the white and red regions of the quadriceps and the soleus muscles were removed and frozen as described above. Muscles were kept frozen at −70° C. until analyzed. Liver, heart, kidney, and fat pads were weighed.
# (§5) For enzyme activity measurements, 10% homogenates were made from the respective muscles in 175 mM KCl, 10 mM GSH, 2 mM EDTA, pH 7.4. This homogenate was frozen and thawed 3 times and mixed thoroughly prior to enzymatic measurements. For succinate dehydrogenase and lactate dehydrogenase, an aliquot of the homogenate was centrifuged at 700×g for 10 min at 4° C. The remainder of the assays were performed on aliquots and dilutions of the mixed whole homogenate. Assays were performed by the following methods: citrate synthase, succinate dehydrogenase, the mitochondrial fraction of malate dehydrogenase, hexokinase, lactate dehydrogenase, carnitine palmitoyl transferase and hydroxyacyl-CoA dehydrogenase. Srere, P. A. Methods in Enzymology 13:3-6, 1969; King, T. E. Methods Enzymol 10:322-335, 1967; Shonk, C. E. & G. E. Boxer, Cancer Res. 24:709-721, 1964; Uyeda, K., & E. Racker, J. Biol Chem 240:4682-4688, 1965; Pesce, A., et al. J. Biol. Chem. 239:1753-1761, 1964; Baldwin, K. M., et al. Am. J. Physiol 222:373-378, 1972; Mole, P. A., et al. J. Clin. Invest. 50:2323-2330, 1971; Kobayashi, A. et al. J. Biochem. 119:775-782, 1996.
# citrate synthase = experiment: Muscle citrate synthase activity after chronic or intermittent AICAR injection; settings: for citrate synthase activity vs saline-injected controls: AICAR 4 weeks, FIG. 3
# Procedure: as §4, §3, §5
# succinate dehydrogenase = experiment: Muscle succinate dehydrogenase activity after chronic AICAR injection; settings: AICAR 1 mg/g daily 4 wk, FIG. 4
# Procedure: as §4
# For enzyme activity measurements, 10% homogenates were made from the respective muscles in 175 mM KCl, 10 mM GSH, 2 mM EDTA, pH 7.4. This homogenate was frozen and thawed 3 times and mixed thoroughly prior to enzymatic measurements. For succinate dehydrogenase and lactate dehydrogenase, an aliquot of the homogenate was centrifuged at 700×g for 10 min at 4° C. The remainder of the assays were performed on aliquots and dilutions of the mixed whole homogenate. Assays were performed by the following methods: citrate synthase, succinate dehydrogenase, the mitochondrial fraction of malate dehydrogenase, hexokinase, lactate dehydrogenase, carnitine palmitoyl transferase and hydroxyacyl-CoA dehydrogenase. […]
# malate dehydrogenase = experiment: Muscle malate dehydrogenase activity after chronic AICAR injection; settings: AICAR 1 mg/g daily 4 wk, FIG. 4
# Procedure: as §4, §5
# hexokinase = experiment: Muscle hexokinase activity after chronic AICAR injection; settings: AICAR 1 mg/g 4 weeks, FIG. 5
# Procedure: as §4, §5
# [4] = red quadriceps, 60 min after AICAR injection, after daily injections for 4 wk
# [5] = red quadriceps, 60 min after single AICAR injection 1 mg/g s.c., no chronic treatment
# [6] = soleus, 60 min after AICAR injection, after daily injections for 4 wk
# [7] = soleus, 60 min after single AICAR injection 1 mg/g s.c., no chronic treatment
# [8] = white quadriceps, 60 min after AICAR injection, after daily injections for 4 wk
# [9] = white quadriceps, 60 min after single AICAR injection 1 mg/g s.c., no chronic treatment
# [10] = AICAR-injected rats, single injection, 0.2 mM citrate
structure (smiles),measurement,setting,value
"NC(=O)c1ncn([C@@H]2O[C@H](CO)[C@@H](O)[C@H]2O)c1N [AICAR, 5-aminoimidazole-4-carboxamide-1-β-D-ribofuranoside]",AMPK,[1]; [4],200 ± 17 pmol/g/min
same,AMPK,[1]; [5],405 ± 62 pmol/g/min
same,AMPK,[1]; [6],191 ± 22 pmol/g/min
same,AMPK,[1]; [7],447 ± 42 pmol/g/min
same,AMPK,[1]; [8],258 ± 32 pmol/g/min
same,AMPK,[1]; [9],"1,102 ± 80 pmol/g/min"
same,ACC activity in white quadriceps relative to that seen in red quadriceps,[2]; [10],61%
same,ACC activity in white quadriceps relative to that seen in soleus,[2]; [10],44%
same,ACC,[2]; [4],0.21 ± 0.01 nmol/g/min
same,ACC,[2]; [5],0.19 ± 0.02 nmol/g/min
same,ACC,[2]; [6],0.28 ± 0.01 nmol/g/min
same,ACC,[2]; [7],0.19 ± 0.02 nmol/g/min
same,ACC,[2]; [8],0.12 ± 0.01 nmol/g/min
same,ACC,[2]; [9],0.08 ± 0.02 nmol/g/min
same,time course of ZMP in muscle after subcutaneous injection of AICAR,[3]; increased 15 minutes following injection,remains elevated for at least two hours
same,ZMP concentration,[3]; red quadriceps,0.94 ± 0.08 µmol/g
same,ZMP concentration,[3]; soleus muscle,1.15 ± 0.07 µmol/g
same,ZMP concentration,[3]; white quadriceps,0.42 ± 0.04 µmol/g
same,LDH activity,lactate dehydrogenase; red quadriceps,557 ± 26 µmol/g/min
same,LDH activity,lactate dehydrogenase; soleus,162 ± 7 µmol/g/min
same,LDH activity,lactate dehydrogenase; white quadriceps,685 ± 20 µmol/g/min
same,citrate synthase activity vs saline-injected controls,citrate synthase; red quadriceps,not in red quadriceps
same,citrate synthase,"citrate synthase; red region of the quadriceps, intermittent AICAR injections 1 mg/g",57.4 ± 2.5 µmol/g/min
same,citrate synthase activity vs saline-injected controls,citrate synthase; soleus,significantly increased
same,citrate synthase activity vs saline-injected controls,citrate synthase; white quadriceps,significantly increased
same,citrate synthase increase vs controls,"citrate synthase; white quadriceps, intermittent AICAR injections",48%
same,citrate synthase,"citrate synthase; white quadriceps, intermittent AICAR injections 1 mg/g (3 days on, 2 off, 5 on, 2 off, 3 on)",23.0 ± 1.2 µmol/g/min
same,succinate dehydrogenase activity vs controls,succinate dehydrogenase; soleus,all increased
same,succinate dehydrogenase activity vs controls,succinate dehydrogenase; white quadriceps,all increased
same,malate dehydrogenase activity vs controls,malate dehydrogenase; red quadriceps,not in red quadriceps
same,malate dehydrogenase activity vs controls,malate dehydrogenase; soleus,all increased
same,malate dehydrogenase activity vs controls,malate dehydrogenase; white quadriceps,all increased
same,hexokinase activity vs saline-injected controls,hexokinase; red region of the quadriceps,significantly increased
same,hexokinase activity vs saline-injected controls,hexokinase; soleus,increase in hexokinase activity in soleus was statistically significant
same,hexokinase activity vs saline-injected controls,hexokinase; white region of the quadriceps,significantly increased

# Source: patent publication US20030212034A1, “Method of treatment of obesity and paralyzed muscle and ergogenic aids” (priority 2002, published 2003)
